Experimental data: patent US7425557B2, “Inhibitors of glycogen synthase kinase 3” (Novartis Vaccines and Diagnostics, Inc., priority 1998, dated 2008)

Molecular target: human GSK3β (Homo sapiens, UniProt P49841)
Experiment: Screening for GSK3 inhibitory activity using a cell-free assay
Assay type: biochemical
Details: read-out: IC50 with respect to GSK3
Experimental: This amount represents the amount of radiolabeled phosphate incorporated into the peptide substrate.
The captured radiolabeled peptide substrate can be quantitated in a scintillation counter using known methods. […] If an inhibitor is present during the reaction, GSK3 activity will be reduced, and a smaller quantity of radiolabeled phosphate will thus be incorporated into the peptide substrate.
Pyrimidine and pyridine compounds of the present invention were dissolved in DMSO, then tested for inhibition of human GSK3β (the nucleotide sequence for human GSK3β appears in GenBank under Accession No. L33801).
While the reaction was proceeding, streptavidin-coated Labsystems “Combiplate 8” capture plates (Labsystems, Helsinki, Finland) were blocked by incubating them with 300 μl/well of PBS containing 1% bovine serum albumin for at least one hour at room temperature. The blocking solution was then removed by aspiration, and the capture plates were filled with 100 ul/well of stopping reagent (50 μM ATP/20 mM EDTA).
When the three hour enzyme reaction was finished, triplicate 100 μl aliquots of each reaction mix were transferred to three wells containing stopping solution, one well on each of the three capture plates, and the well contents were mixed well. […] Finally, 200 μl of Microscint-20 scintillation fluid was added to each well of the plate. The plates were coated with plate sealers, then left on a shaker for 30 minutes. Each capture plate was counted in a Packard TopCount scintillation counter (Meridian, Conn.) and the results were plotted as a function of compound concentration.

Chain of human GSK3β (P49841 whole entry): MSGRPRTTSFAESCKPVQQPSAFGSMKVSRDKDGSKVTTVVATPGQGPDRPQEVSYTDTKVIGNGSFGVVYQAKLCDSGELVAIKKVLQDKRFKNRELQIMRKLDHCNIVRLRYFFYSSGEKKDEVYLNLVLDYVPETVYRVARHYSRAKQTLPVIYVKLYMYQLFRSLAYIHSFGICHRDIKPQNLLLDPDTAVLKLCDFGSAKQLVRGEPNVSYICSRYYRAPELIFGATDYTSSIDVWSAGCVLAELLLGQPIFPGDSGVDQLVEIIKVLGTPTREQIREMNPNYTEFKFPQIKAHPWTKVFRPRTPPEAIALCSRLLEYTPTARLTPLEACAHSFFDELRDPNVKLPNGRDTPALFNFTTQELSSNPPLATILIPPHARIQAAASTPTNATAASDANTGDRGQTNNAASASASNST

Compound	IC50 [µM]
NC(=O)c1ccc(-c2ccnc(NCCc3ccc([N+](=O)[O-])cc3)n2)cc1 [4-(2-{[2-(4-nitrophenyl)ethyl]amino}pyrimidin-4-yl)benzamide]	≤ 10
Cc1cc(Cl)ccc1-c1nc(NCCNc2ccc([N+](=O)[O-])c(N)n2)ncc1-c1ncc[nH]1 [{2-[(6-amino-5-nitro(2-pyridyl))amino]ethyl}[4-(4-chloro-2-methylphenyl)-5-imidazol-2-ylpyrimidin-2-yl]amine]	≤ 1
CN(C)CCCOC(=O)c1cnc(NCCNc2ccc([N+](=O)[O-])cn2)nc1-c1ccc(C#N)cc1 [3-(dimethylamino)propyl 4-(4-cyanophenyl)-2-({2-[(5-nitro(2-pyridyl))amino]ethyl}amino)pyrimidine-5-carboxylate]	≤ 1
CCOC(=O)c1cnc(NCCNc2ccc([N+](=O)[O-])cc2)nc1-c1ccc(C#N)cc1 [ethyl 4-(4-cyanophenyl)-2-({2-[(4-nitrophenyl)amino]ethyl}amino)-pyrimidine-5-carboxylate]	≤ 1
Cc1cn(-c2cnc(NCCNc3ccc([N+](=O)[O-])cn3)nc2-c2ccc(Cl)cc2Cl)c(C)n1 [[4-(2,4-dichlorophenyl)-5-(2,4-dimethylimidazolyl)pyrimidin-2-yl]{2-[(5-nitro(2-pyridyl))amino]ethyl}amine]	≤ 1
N#Cc1ccc(-c2nc(NCCNc3ccc([N+](=O)[O-])cn3)ncc2C(=O)NCCO)cc1 [[4-(4-cyanophenyl)-2-({2-[(5-nitro(2-pyridyl))amino]ethyl}amino)pyrimidin-5-yl]-N-(2-hydroxyethyl)carboxamide]	≤ 1
O=C(NCc1cccc(Br)c1)c1ccc(-c2ccnc(NCCNc3ccc4ccccc4n3)n2)cc1 [N-[(3-bromophenyl)methyl][4-(2-{[2-(2-quinolylamino)ethyl]amino}pyrimidin-4-yl)phenyl]carboxamide]	≤ 10
NC(=O)c1ccc(-c2ccnc(NCCCOc3ccc4ncccc4c3)n2)cc1 [4-{2-[(3-(6-quinolyloxy)propyl)-amino]pyrimidin-4-yl}benzamide]	≤ 10
Nc1nc(NCCNc2ncc(-n3nnnc3C(F)(F)F)c(-c3ccc(Cl)cc3Cl)n2)ccc1[N+](=O)[O-] [{2-[(6-amino-5-nitro(2-pyridyl))amino]ethyl}{4-(2,4-dichlorophenyl)-5-[5-(trifluoromethyl)(1,2,3,4-tetraazolyl)]pyrimidin-2-yl}amine]	≤ 1
NC(=O)c1ccc(-c2ccnc(NCCCOc3ccc(Cl)cc3Cl)n2)cc1 [4-(2-{[3-(2,4-dichlorophenoxy)propyl]amino}pyrimidin-4-yl)benzamide]	≤ 10
COc1ccc(CNC(=O)c2ccc(-c3ccnc(NCCNc4ccc([N+](=O)[O-])cn4)n3)cc2)cc1 [N-[(4-methoxyphenyl)methyl]{4-[2-({2-[(5-nitro(2-pyridyl))amino]ethyl}-amino)pyrimidin-4-yl]phenyl}carboxamide]	≤ 10
NC(=O)c1ccc(-c2ccnc(NCc3cc(Cl)cc(Cl)c3)n2)cc1 [4-(2-{[(3,5-dichlorophenyl)methyl]amino}pyrimidin-4-yl)benzamide]	≤ 10
O=C(NC1CC1c1ccccc1)c1ccc(-c2ccnc(NCCNc3ccc([N+](=O)[O-])cn3)n2)cc1 (stereo not shown) [{4-[2-({2-[(5-nitro(2-pyridyl))amino]ethyl}amino)pyrimidin-4-yl]phenyl}-N-(2-phenylcyclopropyl)-carboxamide]	≤ 10
CCOC(=O)c1cnc(NCCNc2ccc([N+](=O)[O-])cn2)nc1-c1ccc(N(C)C)cc1 [ethyl 4-[4-(dimethylamino)phenyl]-2-({2-[(5-nitro(2-pyridyl))amino]ethyl}-amino)pyrimidine-5-carboxylate]	≤ 1
N#Cc1cnc(NCCNc2ccc([N+](=O)[O-])c(N)n2)nc1-c1ccc(Cl)c(Cl)c1 [2-({2-[(6-amino-5-nitro(2-pyridyl))amino]ethyl}amino)-4-(3,4-dichlorophenyl)pyrimidine-5-carbonitrile]	≤ 10
O=C(O)c1ccc(-c2nc(NCCNc3ccc([N+](=O)[O-])cn3)nc(-c3ccc([N+](=O)[O-])cc3)c2C(=O)O)cc1 [4-(4-carboxyphenyl)-2-({2-[(5-nitro(2-pyridyl))amino]-ethyl}amino)-6-(4-nitrophenyl)pyrimidine-5-carboxylic acid]	≤ 1
N#Cc1ccc(-c2nc(NCCNc3ccc([N+](=O)[O-])cn3)nc(-c3cccc([N+](=O)[O-])c3)c2C(=O)O)cc1 [4-(4-cyanophenyl)-2-({2-[(5-nitro(2-pyridyl))amino]ethyl}amino)-6-(3-nitrophenyl)pyrimidine-5-carboxylic acid]	≤ 1

Compound	IC50 [µM]
CCOC(=O)c1cnc(NCCNc2ccc([N+](=O)[O-])cn2)nc1NCc1ccc(C#N)cc1 [ethyl 4-{[(4-cyanophenyl)methyl]amino}-2-({2-[(5-nitro(2-pyridyl))amino]-ethyl}amino)pyrimidine-5-carboxylate]	≤ 1
O=[N+]([O-])c1ccc(NCCNc2ncc(-c3ncc[nH]3)c(-c3ccc(Cl)cc3Cl)n2)nc1 [[4-(2,4-dichlorophenyl)-5-imidazol-2-ylpyrimidin-2-yl]{2-[(5-nitro(2-pyridyl))amino]ethyl}amine]	≤ 1
Nc1nc(NCCNc2ncc(N3C(=O)CC(N4CCOCC4)C3=O)c(-c3ccc(Cl)cc3Cl)n2)ccc1[N+](=O)[O-] (stereo not shown) [1-[2-({2-[(6-amino-5-nitro(2-pyridyl))amino]ethyl}amino)-4-(2,4-dichlorophenyl)pyrimidin-5-yl]-3-morpholin-4-ylpyrrolidine-2,5-dione]	≤ 1
CCOC(=O)c1cnc(NCCNc2ccc([N+](=O)[O-])cn2)nc1-c1ccc(C)cc1 [ethyl 4-(4-methylphenyl)-2-({2-[(5-nitro(2-pyridyl))amino]ethyl}amino)pyrimidine-5-carboxylate]	≤ 1
Cc1cccc(CNc2ccnc(NCCNc3ccc([N+](=O)[O-])cn3)n2)c1 [[(3-methylphenyl)methyl][2-({2-[(5-nitro-(2-pyridyl))amino]ethyl}amino)pyrimidin-4-yl]amine]	≤ 10
CCOC(=O)c1cnc(NCCc2ccccn2)nc1-c1ccco1 [ethyl 4-(2-furyl)-2-[(2-(2-pyridyl)ethyl)amino]pyrimidine-5-carboxylate]	≤ 10
CCOC(=O)c1cnc(NCCNc2ccc([N+](=O)[O-])cn2)nc1-c1ccc(Cl)c(Cl)c1 [ethyl 4-(3,4-dichlorophenyl)-2-({2-[(5-nitro(2-pyridyl))amino]ethyl}amino)pyrimidine-5-carboxylate]	≤ 10
Cc1noc(-c2cnc(NCCNc3ccc([N+](=O)[O-])cn3)nc2-c2ccc(C#N)cc2)n1 [4-[5-(3-methyl(1,2,4-oxadiazol-5-yl))-2-({2-[(5-nitro(2-pyridyl))amino]-ethyl}amino)pyrimidin-4-yl]benzenecarbonitrile]	≤ 1
Cc1cn(-c2ccc(NCCNc3ccc([N+](=O)[O-])c(N)n3)nc2-c2ccc(Cl)cc2Cl)cn1 [{2-[(6-amino-5-nitro(2-pyridyl))amino]ethyl}[6-(2,4-dichlorophenyl)-5-(4-methylimidazolyl)(2-pyridyl)]amine]	≤ 1
O=C(O)c1c(-c2ccc([N+](=O)[O-])cc2)nc(NCCNc2ccc([N+](=O)[O-])cn2)nc1-c1cccc([N+](=O)[O-])c1 [2-({2-[(5-nitro(2-pyridyl))amino]ethyl}amino)-4-(3-nitrophenyl)-6-(4-nitrophenyl)pyrimidine-5-carboxylic acid]	≤ 10
O=[N+]([O-])c1ccc(NCCNc2nccc(NCc3ccccc3)n2)nc1 [[2-({2-[(5-nitro(2-pyridyl))amino]ethyl}amino)pyrimidin-4-yl]benzylamine]	≤ 10
CN1CC(=O)N(c2cnc(NCCNc3ccc([N+](=O)[O-])cn3)nc2-c2ccc(Cl)cc2Cl)C(=O)C1 [1-[4-(2,4-dichlorophenyl)-2-({2-[(5-nitro(2-pyridyl))amino]ethyl}amino)pyrimidin-5-yl]-4-methylpiperazine-2,6-dione]	≤ 1
Cc1cccc(OCCCNc2nccc(-c3ccc(C(N)=O)cc3)n2)c1 [4-(2-{[3-(3-methylphenoxy)propyl]amino}pyrimidin-4-yl)benzamide]	≤ 10
CCOC(=O)c1c(CC)nc(NCCNc2ccc([N+](=O)[O-])cn2)nc1-c1ccc(C(N)=O)cc1 [ethyl 4-(4-carbamoylphenyl)-6-ethyl-2-({2-[(5-nitro(2-pyridyl))amino]ethyl}amino)pyrimidine-5-carboxylate]	≤ 1
Nc1nc(NCCNc2ncc(-c3ccncc3)c(-c3ccc(Cl)cc3Cl)n2)ccc1[N+](=O)[O-] [{2-[(6-amino-5-nitro(2-pyridyl))amino]ethyl}[4-(2,4-dichlorophenyl)-5-(4-pyridyl)pyrimidin-2-yl]amine]	≤ 1
O=C(NCc1cccc(C(F)(F)F)c1)c1ccc(-c2ccnc(NCCNc3ccc([N+](=O)[O-])cn3)n2)cc1 [{4-[2-({2-[(5-nitro(2-pyridyl))amino]ethyl}amino)pyrimidin-4-yl]phenyl}-N-{[3-(trifluoromethyl)phenyl]methyl}carboxamide]	≤ 10
CNCC(=O)Nc1cnc(NCCNc2ccc([N+](=O)[O-])c(N)n2)nc1-c1ccc(Cl)cc1Cl [N-[2-({2-[(6-amino-5-nitro(2-pyridyl))amino]ethyl}amino)-4-(2,4-dichlorophenyl)pyrimidin-5-yl]-2-(methylamino)acetamide]	≤ 1
